Tested on: neuronal protein extravasation
Assay: Neuronal protein extravasation in dura after electrical stimulation of the trigeminal ganglion (Evans Blue)
Format: in vivo, Harlan Sprague-Dawley rats or guinea pigs
Procedure: Harlan Sprague-Dawley rats (225-325 g) or guinea pigs from Charles River Laboratories (225-325 g) were anesthetized with sodium pentobarbital intraperitoneally (65 mg/kg or 45 mg/kg respectively) and placed in a stereotaxic frame (David Kopf Instruments) with the incisor bar set at - 3.5 mm for rats or -4.0 mm for guinea pigs. Following a midline sagital scalp incision, two pairs of bilateral holes were drilled through the skull (6 mm posteriorly, 2.0 and 4.0 mm laterally in rats; 4 mm posteriorly and 3.2 and 5.2 mm laterally in guinea pigs, all coordinates referenced to bregma). Pairs of stainless steel stimulating electrodes (Rhodes Medical Systems, Inc.) were lowered through the holes in both hemispheres to a depth of 9 mm (rats) or 10.5 mm (guinea pigs) from dura.
The femoral vein was exposed and a dose of the test compound was injected intravenously (1 mL/kg). […]
A fluorescence microscope (Zeiss) equipped with a grating monochromator and a spectrophotometer was used to quantify the amount of Evans Blue dye in each sample. An excitation wavelength of approximately 535 nm was utilized and the emission intensity at 600 nm was determined. […] This facilitated the computer-controlled movement of the stage with fluorescence measurements at 25 points (500 µm steps) on each dural sample. The mean and standard deviation of the measurements was determined by the computer. […]

SMILES | Inhibition of Protein Extravasation i.v. ID50 (i.v., 10 minutes before stimulation of the trigeminal ganglion, species (rat or guinea pig) not given, ID50 approximated from dose-response curve) | Inhibition of Protein Extravasation i.v. ID50 (mMol/kg) (iv)
O=C(O)C(=O)O.Oc1ccc2[nH]cc(C3CCNCC3)c2c1 [Compound III, 5-hydroxy-3-(4-piperidinyl)-1H-indole oxalate] | 8.9e-09 mmol/kg | 
CCN(CC)C1CCc2cccc(Cl)c2C1.Cl (centres unmarked) [Compound IV, 8-chloro-2-diethylamino-1,2,3,4-tetrahydronaphthalene hydrochloride] |  | 1.2x10-^7 mMol/kg

Source: patent publication EP0929299B1, “SUBSTITUTED 1,2,3,4-TETRAHYDRO-2-DIBENZOFURANAMINES AND 2-AMINOCYCLOHEPTA(b)BENZOFURANS” (ELI LILLY AND COMPANY, priority 1996, dated 1998)
